# Reference: PubChem BioAssay AID652169 (The Scripps Research Institute Molecular Screening Center, 2013)
# Calls of active or inactive are those of the source. The rule behind the calls is not given here.
# Test system: MTT cytotoxicity, absorbance 620 nm
# Experiment: cell viability loss, MTT reduction – absorbance, cytotoxicity control for NOD2-RIPK2 interaction inhibitor project, late-stage follow-up (AID 652169)
row,Structure (SMILES),IC50
1,O=S(=O)(c1ccc(F)cc1)N1CCCCCC1,> 10 µM (inactive)
2,O=S(=O)(c1ccccc1)N1CCCCCC1,> 10 µM (inactive)
3,Cc1ccc(S(=O)(=O)N2CCCCCC2)cc1[N+](=O)[O-],> 10 µM (inactive)
4,Cc1ccc(C(C[N+](=O)[O-])n2nc(C)cc2C)cc1 (stereo unspecified),> 10 µM (inactive)
5,Cc1nc([N+](=O)[O-])c(Br)n1Cc1ccccc1,> 10 µM (inactive)
6,O=[N+]([O-])c1cc(S(=O)(=O)N2CCCCCC2)ccc1F,> 10 µM (inactive)
7,COc1ccc(C(C[N+](=O)[O-])n2nc(C)cc2C)cc1 (stereo unspecified),> 10 µM (inactive)
8,Cc1cc(S(=O)(=O)N2CCCCCC2)ccc1F,> 10 µM (inactive)
9,Cc1ncc([N+](=O)[O-])n1Cc1ccc(Cl)c(Cl)c1,> 10 µM (inactive)
10,Cc1nc([N+](=O)[O-])c(Br)n1Cc1ccc(Cl)c(Cl)c1,> 10 µM (inactive)
11,O=[N+]([O-])c1cccc(S(=O)(=O)N2CCCCCC2)c1,> 10 µM (inactive)
